Experiments:
Format in all cases: cell-based
Settings in all cases: 24 hours of compound treatment, 50 nM and 500 nM tested (concentration behind the class not stated)
GSPT1 = target: T1, GSPT1 (Homo sapiens, UniProt P15170+Q96SW2); experiment: Western-blot assay of substrate protein degradation in hPBMCs, GSPT1
T1 construct: endogenous in cells; host or cells: hPBMCs (Milecell Biotechnologies)

IKZF2 = target: T2, IKZF2 (Homo sapiens, UniProt Q96SW2+Q9UKS7); experiment: Western-blot assay of substrate protein degradation in hPBMCs, IKZF2
T2 construct: endogenous in cells; host or cells: hPBMCs (Milecell Biotechnologies)
T2 sequence (Q9UKS7 whole entry): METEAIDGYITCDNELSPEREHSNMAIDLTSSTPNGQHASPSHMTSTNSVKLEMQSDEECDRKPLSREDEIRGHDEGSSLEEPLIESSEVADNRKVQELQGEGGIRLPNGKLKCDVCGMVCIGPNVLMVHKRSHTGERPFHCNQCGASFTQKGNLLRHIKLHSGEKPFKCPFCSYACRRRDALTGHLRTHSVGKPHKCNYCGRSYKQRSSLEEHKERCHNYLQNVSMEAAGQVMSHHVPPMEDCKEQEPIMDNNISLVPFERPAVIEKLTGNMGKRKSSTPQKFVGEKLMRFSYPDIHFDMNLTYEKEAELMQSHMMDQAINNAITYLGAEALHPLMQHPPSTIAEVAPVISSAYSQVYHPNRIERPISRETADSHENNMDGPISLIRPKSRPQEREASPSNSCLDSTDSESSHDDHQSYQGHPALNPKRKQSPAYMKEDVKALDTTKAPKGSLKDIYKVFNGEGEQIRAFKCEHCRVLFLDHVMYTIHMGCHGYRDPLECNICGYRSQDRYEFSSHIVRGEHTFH
T2 sequence (Q96SW2 whole entry): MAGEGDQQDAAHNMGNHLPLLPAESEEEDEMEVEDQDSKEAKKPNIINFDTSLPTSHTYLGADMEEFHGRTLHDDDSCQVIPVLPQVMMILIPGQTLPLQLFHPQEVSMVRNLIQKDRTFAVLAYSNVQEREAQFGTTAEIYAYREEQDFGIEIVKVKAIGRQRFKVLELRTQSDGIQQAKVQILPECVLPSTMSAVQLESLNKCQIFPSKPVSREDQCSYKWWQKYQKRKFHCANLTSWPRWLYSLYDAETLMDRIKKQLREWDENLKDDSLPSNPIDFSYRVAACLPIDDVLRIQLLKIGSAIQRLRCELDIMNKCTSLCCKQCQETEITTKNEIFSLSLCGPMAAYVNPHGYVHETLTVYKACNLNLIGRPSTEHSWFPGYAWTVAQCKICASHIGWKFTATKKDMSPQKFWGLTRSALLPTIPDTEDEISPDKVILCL
T2 sequence (Q16531 whole entry partner): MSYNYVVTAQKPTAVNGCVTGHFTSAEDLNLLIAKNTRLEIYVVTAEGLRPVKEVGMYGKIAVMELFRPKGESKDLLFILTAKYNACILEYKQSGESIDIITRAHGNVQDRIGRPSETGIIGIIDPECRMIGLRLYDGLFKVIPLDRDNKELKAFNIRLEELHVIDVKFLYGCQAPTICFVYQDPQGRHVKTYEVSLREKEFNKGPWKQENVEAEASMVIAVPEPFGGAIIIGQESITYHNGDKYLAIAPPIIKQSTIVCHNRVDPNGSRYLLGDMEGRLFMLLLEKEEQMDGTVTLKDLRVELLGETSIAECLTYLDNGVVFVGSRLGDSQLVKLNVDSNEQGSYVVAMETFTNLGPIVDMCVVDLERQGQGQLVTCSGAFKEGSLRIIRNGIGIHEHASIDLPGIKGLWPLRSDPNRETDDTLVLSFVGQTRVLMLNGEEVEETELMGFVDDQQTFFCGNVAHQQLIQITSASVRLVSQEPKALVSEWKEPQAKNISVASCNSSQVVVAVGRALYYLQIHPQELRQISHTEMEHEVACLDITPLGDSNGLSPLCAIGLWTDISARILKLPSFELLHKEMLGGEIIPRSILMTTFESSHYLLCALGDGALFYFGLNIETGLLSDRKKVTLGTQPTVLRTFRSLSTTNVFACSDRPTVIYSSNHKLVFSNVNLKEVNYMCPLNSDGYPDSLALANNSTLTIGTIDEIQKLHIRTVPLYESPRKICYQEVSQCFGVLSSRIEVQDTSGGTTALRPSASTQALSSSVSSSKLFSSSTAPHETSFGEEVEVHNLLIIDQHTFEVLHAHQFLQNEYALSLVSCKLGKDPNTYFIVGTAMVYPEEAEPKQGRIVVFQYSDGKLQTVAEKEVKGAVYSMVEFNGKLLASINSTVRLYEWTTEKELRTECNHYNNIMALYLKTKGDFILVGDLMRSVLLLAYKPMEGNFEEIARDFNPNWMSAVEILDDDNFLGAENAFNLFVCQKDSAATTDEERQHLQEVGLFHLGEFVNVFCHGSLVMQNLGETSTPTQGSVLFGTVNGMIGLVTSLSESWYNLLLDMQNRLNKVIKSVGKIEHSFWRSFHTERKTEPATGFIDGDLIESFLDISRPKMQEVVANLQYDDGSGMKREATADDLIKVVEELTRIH

IKZF3 = target: T3, IKZF3 (Homo sapiens, UniProt Q96SW2+Q9UKT9); experiment: Western-blot assay of substrate protein degradation in hPBMCs, IKZF3
T3 construct: endogenous in cells; host or cells: hPBMCs (Milecell Biotechnologies)
T3 sequence (Q9UKT9 whole entry): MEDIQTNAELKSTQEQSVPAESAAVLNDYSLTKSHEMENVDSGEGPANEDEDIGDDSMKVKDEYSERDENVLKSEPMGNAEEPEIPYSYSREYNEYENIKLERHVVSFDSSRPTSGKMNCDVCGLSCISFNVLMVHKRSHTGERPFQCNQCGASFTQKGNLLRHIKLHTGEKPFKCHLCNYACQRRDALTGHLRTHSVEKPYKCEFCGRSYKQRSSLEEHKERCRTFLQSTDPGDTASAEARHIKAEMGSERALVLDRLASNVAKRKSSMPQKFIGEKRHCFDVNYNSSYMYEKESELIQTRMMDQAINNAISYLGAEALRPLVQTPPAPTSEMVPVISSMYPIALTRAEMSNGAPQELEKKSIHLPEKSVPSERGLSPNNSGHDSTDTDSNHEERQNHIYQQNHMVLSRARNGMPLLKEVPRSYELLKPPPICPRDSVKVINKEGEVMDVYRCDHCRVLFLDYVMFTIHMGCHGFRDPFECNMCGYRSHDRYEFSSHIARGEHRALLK
T3 sequence (Q96SW2 whole entry): as the sequence (Q96SW2 whole entry) above
T3 sequence (Q16531 whole entry partner): as the sequence (Q16531 whole entry partner) above

CK1α = target: T4, CK1α (Homo sapiens, UniProt P48729+Q96SW2); experiment: Western-blot assay of substrate protein degradation in hPBMCs, CK1α
T4 construct: endogenous in cells; host or cells: hPBMCs (Milecell Biotechnologies)
T4 sequence (P48729 whole entry): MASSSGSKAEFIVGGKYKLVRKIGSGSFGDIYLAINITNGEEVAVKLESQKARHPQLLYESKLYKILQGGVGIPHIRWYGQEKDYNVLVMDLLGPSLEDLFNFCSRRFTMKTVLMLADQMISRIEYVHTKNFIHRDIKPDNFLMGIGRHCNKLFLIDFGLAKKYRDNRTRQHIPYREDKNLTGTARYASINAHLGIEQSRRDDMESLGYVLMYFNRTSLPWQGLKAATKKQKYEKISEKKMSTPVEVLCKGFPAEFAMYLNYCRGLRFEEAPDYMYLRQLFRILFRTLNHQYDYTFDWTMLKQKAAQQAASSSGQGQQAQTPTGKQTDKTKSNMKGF
T4 sequence (Q96SW2 whole entry): as the sequence (Q96SW2 whole entry) above
T4 sequence (Q16531 whole entry partner): as the sequence (Q16531 whole entry partner) above

WEE1 = target: T5, WEE1 (Homo sapiens, UniProt P30291+Q96SW2); experiment: Western-blot assay of substrate protein degradation in hPBMCs, WEE1
T5 construct: endogenous in cells; host or cells: hPBMCs (Milecell Biotechnologies)
T5 sequence (P30291 whole entry): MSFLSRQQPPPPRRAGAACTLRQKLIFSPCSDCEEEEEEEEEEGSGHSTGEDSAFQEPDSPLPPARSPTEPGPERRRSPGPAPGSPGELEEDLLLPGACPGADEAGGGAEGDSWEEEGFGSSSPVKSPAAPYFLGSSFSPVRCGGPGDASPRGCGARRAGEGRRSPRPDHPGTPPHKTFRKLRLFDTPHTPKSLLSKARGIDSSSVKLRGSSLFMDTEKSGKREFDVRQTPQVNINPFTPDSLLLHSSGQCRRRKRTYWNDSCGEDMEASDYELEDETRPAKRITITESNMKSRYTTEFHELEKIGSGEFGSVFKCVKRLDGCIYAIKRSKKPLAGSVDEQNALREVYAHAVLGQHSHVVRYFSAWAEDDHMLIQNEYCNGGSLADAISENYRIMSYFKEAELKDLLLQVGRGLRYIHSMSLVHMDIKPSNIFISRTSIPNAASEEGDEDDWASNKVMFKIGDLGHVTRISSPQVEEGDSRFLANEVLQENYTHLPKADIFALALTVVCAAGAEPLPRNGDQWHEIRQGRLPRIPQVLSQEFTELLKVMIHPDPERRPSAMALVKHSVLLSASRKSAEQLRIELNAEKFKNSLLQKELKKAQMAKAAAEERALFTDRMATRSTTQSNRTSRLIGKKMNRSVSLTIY
T5 sequence (Q96SW2 whole entry): as the sequence (Q96SW2 whole entry) above
T5 sequence (Q16531 whole entry partner): as the sequence (Q16531 whole entry partner) above

IKZF1 = target: T6, IKZF1 (Homo sapiens, UniProt Q13422+Q96SW2); experiment: Western-blot assay of substrate protein degradation in hPBMCs, IKZF1
T6 construct: endogenous in cells; host or cells: hPBMCs (Milecell Biotechnologies)

T1 sequence (P15170 whole entry): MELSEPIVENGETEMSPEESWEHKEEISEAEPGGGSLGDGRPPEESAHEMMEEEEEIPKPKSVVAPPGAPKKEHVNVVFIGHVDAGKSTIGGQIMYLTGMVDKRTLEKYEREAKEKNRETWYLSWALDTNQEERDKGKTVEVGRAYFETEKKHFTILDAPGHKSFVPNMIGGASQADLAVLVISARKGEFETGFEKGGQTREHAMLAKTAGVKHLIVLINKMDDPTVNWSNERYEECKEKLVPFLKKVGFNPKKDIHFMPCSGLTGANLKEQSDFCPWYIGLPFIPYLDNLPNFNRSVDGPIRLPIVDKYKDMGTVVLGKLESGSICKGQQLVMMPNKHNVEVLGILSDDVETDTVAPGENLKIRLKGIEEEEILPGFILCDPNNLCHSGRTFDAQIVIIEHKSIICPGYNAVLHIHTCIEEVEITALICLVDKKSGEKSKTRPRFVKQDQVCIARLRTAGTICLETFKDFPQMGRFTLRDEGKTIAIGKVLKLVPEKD
T1 sequence (Q96SW2 whole entry): as the sequence (Q96SW2 whole entry) above
T1 sequence (Q16531 whole entry partner): as the sequence (Q16531 whole entry partner) above

Row | SMILES | GSPT1 substrate protein remaining % (GSPT1) | IKZF2 substrate protein remaining % (IKZF2) | IKZF3 substrate protein remaining % (IKZF3) | CK1a substrate protein remaining % (CK1α) | Weel substrate protein remaining % (WEE1) | IKZF 1 substrate protein remaining % (IKZF1)
1 | O=C1CCC(N2C(=O)c3ccc(CN4CCN(c5cccc(C(F)(F)F)n5)CC4)cc3C2=O)C(=O)N1 (stereo not drawn) [GT-06530, 2-(2,6-dioxopiperidin-3-yl)-5-((4-(6-(trifluoromethyl)pyridin-2-yl)piperazin-1-yl)methyl)isoindoline-1,3-dione] | A (0% ≤ substrate protein remaining % ≤ 80%) | B (80%< substrate protein remaining %≤ 100%) | B (80%< substrate protein remaining %≤ 100%) | B (80%< substrate protein remaining %≤ 100%) | B (80%< substrate protein remaining %≤ 100%) | B (80%< substrate protein remaining %≤ 100%)
2 | O=C1CCC(N2C(=O)c3ccc(CN4CCN(c5ccc(C(F)(F)F)cn5)CC4)cc3C2=O)C(=O)N1 (stereo not drawn) [GT-06531, 2-(2,6-dioxopiperidin-3-yl)-5-((4-(5-(trifluoromethyl)pyridin-2-yl)piperazin-1-yl)methyl)isoindoline-1,3-dione] | A (0% ≤ substrate protein remaining % ≤ 80%) | B (80%< substrate protein remaining %≤ 100%) | B (80%< substrate protein remaining %≤ 100%) | B (80%< substrate protein remaining %≤ 100%) | B (80%< substrate protein remaining %≤ 100%) | B (80%< substrate protein remaining %≤ 100%)
3 | O=C1CCC(N2C(=O)c3ccc(CN4CCN(c5ncc(Cl)cc5Cl)CC4)cc3C2=O)C(=O)N1 (stereo not drawn) [GT-06532, 5-((4-(3,5-dichloropyridin-2-yl)piperazin-1-yl)methyl)-2-(2,6-dioxopiperidin-3-yl)isoindoline-1,3-dione] | A (0% ≤ substrate protein remaining % ≤ 80%) | B (80%< substrate protein remaining %≤ 100%) | B (80%< substrate protein remaining %≤ 100%) | B (80%< substrate protein remaining %≤ 100%) | B (80%< substrate protein remaining %≤ 100%) | B (80%< substrate protein remaining %≤ 100%)
4 | O=C1CCC(N2C(=O)c3ccc(CN4CCN(c5nccc(I)c5F)CC4)cc3C2=O)C(=O)N1 (stereo not drawn) [GT-06533, 2-(2,6-dioxopiperidin-3-yl)-5-((4-(3-fluoro-4-iodopyridin-2-yl)piperazin-1-yl)methyl)isoindoline-1,3-dione] | A (0% ≤ substrate protein remaining % ≤ 80%) | B (80%< substrate protein remaining %≤ 100%) | B (80%< substrate protein remaining %≤ 100%) | B (80%< substrate protein remaining %≤ 100%) | B (80%< substrate protein remaining %≤ 100%) | B (80%< substrate protein remaining %≤ 100%)
5 | O=C1CCC(N2C(=O)c3ccc(CN4CCN(c5ccnc(Cl)c5Cl)CC4)cc3C2=O)C(=O)N1 (stereo not drawn) [GT-06534, 5-((4-(2,3-dichloropyridin-4-yl)piperazin-1-yl)methyl)-2-(2,6-dioxopiperidin-3-yl)isoindoline-1,3-dione] | A (0% ≤ substrate protein remaining % ≤ 80%) | B (80%< substrate protein remaining %≤ 100%) | B (80%< substrate protein remaining %≤ 100%) | B (80%< substrate protein remaining %≤ 100%) | B (80%< substrate protein remaining %≤ 100%) | B (80%< substrate protein remaining %≤ 100%)
6 | O=C1CCC(N2C(=O)c3ccc(CN4CCN(c5ccnc(F)c5F)CC4)cc3C2=O)C(=O)N1 (stereo not drawn) [GT-06535, 5-((4-(2,3-difluoropyridin-4-yl)piperazin-1-yl)methyl)-2-(2,6-dioxopiperidin-3-yl)isoindoline-1,3-dione] | B (80%< substrate protein remaining %≤ 100%) | A (0% ≤ substrate protein remaining % ≤ 80%) | A (0% ≤ substrate protein remaining % ≤ 80%) | B (80%< substrate protein remaining %≤ 100%) | B (80%< substrate protein remaining %≤ 100%) | B (80%< substrate protein remaining %≤ 100%)
7 | O=C1CCC(N2C(=O)c3ccc(CN4CCN(c5c(Cl)ccnc5Cl)CC4)cc3C2=O)C(=O)N1 (stereo not drawn) [GT-06552, 5-((4-(2,4-dichloropyridin-3-yl)piperazin-1-yl)methyl)-2-(2,6-dioxopiperidin-3-yl)isoindoline-1,3-dione] | A (0% ≤ substrate protein remaining % ≤ 80%) | A (0% ≤ substrate protein remaining % ≤ 80%) | B (80%< substrate protein remaining %≤ 100%) | B (80%< substrate protein remaining %≤ 100%) | B (80%< substrate protein remaining %≤ 100%) | B (80%< substrate protein remaining %≤ 100%)
8 | O=C1CCC(N2C(=O)c3ccc(CN4CCN(c5ccncc5)CC4)cc3C2=O)C(=O)N1 (stereo not drawn) [GT-06553, 2-(2,6-dioxopiperidin-3-yl)-5-((4-(pyridin-4-yl)piperazin-1-yl)methyl)isoindoline-1,3-dione] | A (0% ≤ substrate protein remaining % ≤ 80%) | A (0% ≤ substrate protein remaining % ≤ 80%) | B (80%< substrate protein remaining %≤ 100%) | B (80%< substrate protein remaining %≤ 100%) | B (80%< substrate protein remaining %≤ 100%) | B (80%< substrate protein remaining %≤ 100%)
9 | Cc1cc(N2CCN(Cc3ccc4c(c3)C(=O)N(C3CCC(=O)NC3=O)C4=O)CC2)ccn1 (stereo not drawn) [GT-06554, 2-(2,6-dioxopiperidin-3-yl)-5-((4-(2-methylpyridin-4-yl)piperazin-1-yl)methyl)isoindoline-1,3-dione] | A (0% ≤ substrate protein remaining % ≤ 80%) | A (0% ≤ substrate protein remaining % ≤ 80%) | B (80%< substrate protein remaining %≤ 100%) | B (80%< substrate protein remaining %≤ 100%) | B (80%< substrate protein remaining %≤ 100%) | B (80%< substrate protein remaining %≤ 100%)
10 | O=C1CCC(N2C(=O)c3ccc(CN4CCN(c5nccc(F)c5F)CC4)cc3C2=O)C(=O)N1 (stereo not drawn) [GT-06555, 5-((4-(3,4-difluoropyridin-2-yl)piperazin-1-yl)methyl)-2-(2,6-dioxopiperidin-3-yl)isoindoline-1,3-dione] | A (0% ≤ substrate protein remaining % ≤ 80%) | A (0% ≤ substrate protein remaining % ≤ 80%) | B (80%< substrate protein remaining %≤ 100%) | B (80%< substrate protein remaining %≤ 100%) | B (80%< substrate protein remaining %≤ 100%) | B (80%< substrate protein remaining %≤ 100%)
11 | O=C1CCC(N2C(=O)c3ccc(CN4CCN(c5ccncc5Br)CC4)cc3C2=O)C(=O)N1 (stereo not drawn) [GT-06556, 5-((4-(3-bromopyridin-4-yl)piperazin-1-yl)methyl)-2-(2,6-dioxopiperidin-3-yl)isoindoline-1,3-dione] | A (0% ≤ substrate protein remaining % ≤ 80%) | A (0% ≤ substrate protein remaining % ≤ 80%) | B (80%< substrate protein remaining %≤ 100%) | B (80%< substrate protein remaining %≤ 100%) | B (80%< substrate protein remaining %≤ 100%) | B (80%< substrate protein remaining %≤ 100%)
12 | O=C1CCC(N2C(=O)c3ccc(CN4CCC(c5ncnc6sccc56)CC4)cc3C2=O)C(=O)N1 (stereo not drawn) [GT-06591, 2-(2,6-dioxopiperidin-3-yl)-5-((4-(thieno[2,3-d]pyrimidin-4-yl)piperidin-1-yl)methyl)isoindoline-1,3-dione] | A (0% ≤ substrate protein remaining % ≤ 80%) | B (80%< substrate protein remaining %≤ 100%) | B (80%< substrate protein remaining %≤ 100%) | B (80%< substrate protein remaining %≤ 100%) | A (0% ≤ substrate protein remaining % ≤ 80%) | B (80%< substrate protein remaining %≤ 100%)
